Like-named read-outs stand apart in the source and are kept apart here. Marks after values point to notes of the source that are not given here. Where a SMILES comes first, the peptide text is derived from it. Bridges are numbered along the chain shown (N, C = ends). [ ]: non-standard residue; d: D form. The star is where a group is joined. X1 = CC[C@H](C)CCCCC(=O)*; Dab = NCC[C@H](N)C(=O)O
What was measured:
[1] = Colistin concentration in luminal intestinal (jejunum and ileum) content, UHPLC-MS/MS; format: in vivo, Ross 308 broiler chickens; conditions: Ross 308 broiler; for tissue level at time at 54 h: po, jejunum and ileum content, 4 birds per timepoint, read-out: Geometric mean colistin concentration in luminal intestinal content
Procedure: Pharmacokinetic data from in vivo clinical and supra-clinical doses via drinking water and oral gavage were collected as follows. Birds were provided a 14-h photoperiod aligned with onset of dosing (0 h) at 07:00. Birds were housed together upon arrival and separated at 13-days into the following dosing groups 75,000 IU/kg oral gavage (n = 17), 150,000 IU/kg oral gavage (n = 17), 75,000 IU/kg/day drinking water (n = 38), 100,000 IU/kg/day drinking water (n = 38), and 150,000 IU/kg/day drinking water (n = 38), the remaining birds constituted an untreated control group (n = 27) housed in another room. Colistin was administered as a single oral gavage via manual syringe directly into the crop, with the volume calculated based on bird weight immediately prior to dosing. For colistin administration via drinking water, dose was calculated based on average bird weight and water consumption measured the preceding day. It was refreshed every 24 h over the 3-day dosing. The “real” dose received every 24 h was back calculated based on measured water consumption for each dosing period.
For administration via drinking water, 4 birds were sampled at each of the following timepoints pre-dose (0 h), during-dose (12, 36 and 54 h) and post-dose (72, 75, 76, 78, 84 and 96 h). Following oral gavage, 2 birds were sampled at each of the following timepoints 0 h (pre-dose), 1 h, 3 h, 6 h, 12 h, and 24 h (post-dose). Birds were sacrificed through cervical dislocation. The whole small intestine was excised from the duodenum to the large intestine, including the caeca, using individually wrapped and sterilised sets of dissection apparatus were used to avoid cross-contamination between birds. The jejunum and ileum were resected (between proximal ligature after duodenum, and distal ligature before the large intestine) and luminal intestinal content (LIC) was collected as an homogenous sample extracted from the small intestine via peristaltic massage in a proximal-to-distal direction as previously described, with the jejunum/ileum representing the principle compartment for potentially pathogenic E. coli (as compared to the large intestine). All samples were stored at − 80 °C prior to further analysis for no-more than 3 months. Following a previously validated method, colistin was extracted from the matrix using solid-phase extraction with a methanol:water (1:2; v/v) solution. Polymyxin B1 was used as an internal standard. Colistin A and colistin B, (main components of colistin), were separated, detected and measured using ultra-high-performance liquid chromatography coupled with tandem mass spectrometry (UHPLC-MS/MS). Total colistin was calculated as the ratio of the sum of peak areas of colistin A and B over the polymyxin B1 peak area.

[2] = 1-compartment population intestinal PK model of colistin; format: in vivo, broiler chickens; conditions: for Amount of colistin base transit through the small intestine / Amount of colistin sulphate transit through the small intestine: Eq. (1)
Procedure: Colistin (converted in mg/kg BW) was deposited in a dosing compartment (crop), either as a single bolus input representing an oral-gavage administration or as a daily zero-order input lasting 24 h representing a continuous dose via drinking water. The colistin content pooled jejunum and ileum content (expressed as mg colistin/kg intestinal content) was assumed to be well mixed and was fitted with a one-compartment model. The model was parametrised with 3 parameters: “clearance” that is here an intestinal flow rate (expressed in kg intestinal content/kg BW h^−1), “volume of distribution”, expressed in kg intestinal content/kg BW) and absorption rate constant for extravascular administration (Ka expressed in h^−1).
Between subject variability (BSV) was applied to the clearance (Cl) described using an exponential model, as in the following general equation: Pi=tvP∗exp(ηPi) where tvP is the typical value of the parameter within the population and the random parameter ηPi (eta) represents the deviation from the typical value for the ith individual. Etas are assumed normally distributed with a mean of 0 and a variance of ω^2.
For model evaluation, a significant decrease (> 6.635 corresponding to p < 0.01 for one degree of freedom) in the Bayesian information criterion (BIC) as well as observation of observed vs. population, individual predicted concentrations plots, and visual predictive checks (VPC) were utilized. All concentrations lower than the LOQ of the bioanalytical method (1.1 mg/kg) were considered as censored and managed with the M3 approach and using the Laplace engine by Phoenix™ v8.3.0.5005 (Certara, St. Louis, Missouri). Residual variability was described with a multiplicative error model, providing optimal fit compared to additive or additive/multiplicative models. Residual variability was low due to the single random effect on the clearance considering only a single-point for each bird (due to the nature of the destructive sampling) and the near normal distribution of the Etas. The final population model was evaluated using a Visual Predictive Check (VPC; n = 300) that compares observed with predicted quantiles (10th, 50th and 90th percentiles).

[3] = Colistin activity loss after centrifugation of medium (colispot microbiological assay); format: in vitro ADME; conditions: colispot method
[4] = test system: E. coli; conditions: ref EUCAST; cited from earlier work
Procedure: Colistin is used in chickens for the treatment and metaphylaxis (following confirmation of disease within the flock) of susceptible (ECOFF = 2 mg/L) gastro-intestinal non-invasive E. coli infections. The dose recommended for administration via drinking water is 75,000 IU of colistin (as sulphate) per kg body weight per day for 3–5 consecutive days in Europe. As colistin is not absorbed from the gastrointestinal tract, its effect is exerted locally within the intestinal lumen and the wall of the intestine. As such, there is an opportunity to develop a PK model to predict the gut concentration t ...

[5] = test system: E. coli 120h_B3_5; mcr-1; conditions: cited from earlier work
Source text: (§1) Supplement 41598_2023_39727_MOESM1_ESM.docx, table 2: Supplementary Table 2: Typical value (tv) and median parameter estimates and 95% confidence intervals of the semi-mechanistic model. | column: Typical value (tv) estimate; Median (Bootstrap) estimate

[6] = test system: E. coli N100; mcr-negative; conditions: cited from earlier work
Source text: as §1

[7] = test system: mcr-negative and mcr-positive E. coli isolates; conditions: cited from earlier work
Source text: as §1

[8] = ref Bergen et al.[46], cited from earlier work
Procedure: For the bacteriological response, the cumulative area under the curve of the total bacterial count over 24 h (AUCbact24h) was used. Data were then log10 transformed for regression. As LOQ was set at 100 CFU/mL, it was considered that re-growth would not occur if the total bacterial population decreased to this value. PK/PD indices are conventionally determined using protein unbound (free; f) concentration. Bergen et al.[46] indicated practical equivalence of total and unbound colistin in CAMHB (unbound fractions of 0.96 and 0.95 at 10 and 30 mg/L respectively). Furthermore, as colistin binding ...

[9] = 75,000 IU/kg BW/day for 3-days; cited from earlier work
Source text: (§2) In this situation treatment is used to lower the number of resident E. coli in the gastrointestinal tract and control gut overgrowth, in a similar fashion to selective decontamination[37],[38]. As the outcome is not to achieve complete eradication (gut sterilisation), a lower effect than predicted by the PK/PD index critical value may be enough to reduce the bacterial burden within the gastrointestinal tract.

[10] = test system: E. coli population; conditions: 75,000 IU/kg BW/day for 3-days; cited from earlier work
Source text: as §2

[11] = targeted dose 100,000 IU/kg BW/day
[12] = targeted dose 150,000 IU/kg BW/day
[13] = typical value, 1-compartment intestinal PK model

In the case of `CC[C@H](C)CCCCC(=O)N[C@@H](CCN)C(=O)N[C@H](C(=O)N[C@@H](CCN)C(=O)N[C@H]1CCNC(=O)[C@H]([C@@H](C)O)NC(=O)[C@H](CCN)NC(=O)[C@H](CCN)NC(=O)[C@H](CC(C)C)NC(=O)[C@@H](CC(C)C)NC(=O)[C@H](CCN)NC1=O)[C@@H](C)O` [colistin, colistin sulphate] (X1-[Dab]T[Dab][Dab][Dab][dL]L[Dab][Dab]T; lactam 4-C), the tissue level at time at 1 h ([1]; 75000 IU/kg, oral gavage 75,000 IU/kg, after 1 h, 2 birds per timepoint) is reported as 21200 ng/g, the tissue level at time at 3 h ([1]; 150000 IU/kg, oral gavage 150,000 IU/kg, after 3 h, 2 birds per timepoint) is reported as 45600 ng/g and the tissue level at time at 54 h ([1]; 75000 IU/kg/day, 75,000 IU/kg via drinking water) is reported as 4890 ng/g. For the same molecule, the tissue level at time at 54 h ([1]; 100000 IU/kg/day, 100,000 IU/kg via drinking water) was 6660 ng/g, the tissue level at time at 54 h ([1]; 150000 IU/kg/day, 150,000 IU/kg via drinking water) was 8600 ng/g and the “Overall MTT in digestive tract (mean transit time crop to jejunum)” value ([2]; secondary parameter) was 4.5 h. For the same molecule, the “ka HL (entry rate half-life)” value ([2]; secondary parameter) was 3.14 h, the “Amount of colistin base transit through the small intestine” value ([2]; targeted dose 75,000 IU/kg BW/day) was 70,534 IU/kg BW/day and the “Amount of colistin base transit through the small intestine” value [2, 11] was 91,627 IU/kg BW/day. The “Amount of colistin sulphate transit through the small intestine” value [2, 11] was 3.05 mg/kg BW/day, the “Amount of colistin base transit through the small intestine” value [2, 12] was 139,935 IU/kg BW/day and the “Amount of colistin sulphate transit through the small intestine” value [2, 12] was 4.66 mg/kg BW/day. For the same molecule, the “Cl (intestinal clearance), estimate (between subject variability %)” value [2, 13] was 29.1 (40.5%) g intestinal content/kg BW/h, the “V (intestinal volume of distribution)” value [2, 13] was 5.14 g intestinal content/kg BW and the “ka (entry rate constant from crop to jejunum)” value [2, 13] was 0.221 h⁻¹. The “Colistin activity loss following centrifugation” value ([3]; from CAMHB, E. coli ATCC 25922 bacterial lawn (microbiological assay, not LCMS)) was 2%, the “Colistin activity loss following centrifugation” value ([3]; from IGM (intestinal growth medium), binding to particulate matter, E. coli ATCC 25922 bacterial lawn) was 27% and the ECOFF [4] was 2 mg/L. For the same molecule, the “F2 (potentiation factor for Kdrug on S1), typical value (tv) estimate” value ([5]; for mcr-positive isolates, calculated from covariate parameter) was 3.76* scalar, the “Emax (S1), typical value (tv) estimate” value ([5]; mcr-positive isolates, Emax (S2) x F2) was 10.13** h^-1 and the “EC50_S1, typical value (tv) estimate” value ([5]; sub-population S1) was 2.760 µg/mL. The “EC50_S2, typical value (tv) estimate” value ([5]; sub-population S2) was 2.174 µg/mL, the “F2 (potentiation factor for Kdrug on S1), typical value (tv) estimate” value ([6]; for mcr-negative isolates) was 12.66 scalar and the “Emax (S1), typical value (tv) estimate” value ([6]; negative mcr isolates, Emax (S2) x F2) was 34.12** h^-1. For the same molecule, the “EC50_S1, typical value (tv) estimate” value ([6]; sub-population S1, reproduced PD parameters) was 0.083 µg/mL, the “EC50_S2, typical value (tv) estimate” value ([6]; sub-population S2) was 0.115 µg/mL and the “Emax (S2), typical value (tv) estimate” value ([7]; both mcr-negative and mcr-positive isolates, maximal increase in kill effect) was 2.69 h⁻¹. For the same molecule, the “gamma_S1 (Hill coefficient), typical value (tv) estimate” value ([7]; sub-population S1) was 4.09 scalar, the “gamma_S2 (Hill coefficient), median (bootstrap) estimate” value ([7]; sub-population S2) was 3.80 scalar and the “gamma_S2 (Hill coefficient), typical value (tv) estimate” value ([7]; sub-population S2) was 3.22 scalar. The “Unbound fraction of colistin” value ([8]; in CAMHB at 10 mg/L) was 0.96, the “Unbound fraction of colistin” value ([8]; in CAMHB at 30 mg/L) was 0.95 and the Maximum intestinal concentrations [9] was “greater than 5 mg/kg”. The “Reduction in the E. coli population” value [10] was ~1000 fold.

Reference: publication PMC10406827, “Targeted dosing for susceptible heteroresistant subpopulations may improve rational dosage regimen prediction for colistin in broiler chickens” (Scientific Reports, 2023)
